Here are results for four compounds from PubChem BioAssay AID1259411 (Chemical Carcinogenesis Research Information System (CCRIS), 2018).

SMILES strings stand for the structures. Calls of active or inactive are those of the source. How the calls were made is not given here.

The subject of this series is rodent carcinogenicity bioassays, tumor incidence. Briefly: CCRIS carcinogenicity studies. An outline of the steps: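 NCI-built, expert-reviewed records of carcinogenicity and related test outcomes (mutagenicity, tumor promotion/inhibition) compiled from published and report sources, historical span 1985-2011, not updated.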

On to `C1CO1`, for which the carcinogen call by setting is: (Species: MOUSE, Strain/Sex: B6C3F1/FEMALE, Route: INHALATION, Dose: 0, 50, 100 PPM 6 HR/D 5 D/WK FOR 102 WK (STUDY DURATION: 105 WK), Dose: 0, 50, 100 PPM 6 HR/D 5 D/WK FOR 102 WK (STUDY DURATION: 105 WK), Tumor Site: Type of Lesion: LUNG: ALVEOLAR/BRONCHIOLAR ADENOMA, LUNG: ALVEOLAR/BRONCHIOLAR CARCINOMA, LUNG: ALVEOLAR/BRONCHIOLAR ADENOMA OR CARCINOM, Tumor Site: Type of Lesion: LUNG: ALVEOLAR/BRONCHIOLAR ADENOMA, LUNG: ALVEOLAR/BRONCHIOLAR CARCINOMA, LUNG: ALVEOLAR/BRONCHIOLAR ADENOMA OR CARCINOM) “active; positive”; (Species: MOUSE, Strain/Sex: B6C3F1/MALE, Route: INHALATION, Dose: 0, 50, 100 PPM 6 HR/D 5 D/WK FOR 102 WK (STUDY DURATION: 105 WK), Dose: 0, 50, 100 PPM 6 HR/D 5 D/WK FOR 102 WK (STUDY DURATION: 105 WK), Tumor Site: Type of Lesion: LUNG: ALVEOLAR/BRONCHIOLAR CARCINOMA, LUNG: ALVEOLAR/BRONCHIOLAR ADENOMA OR CARCINOMA, HARDERIAN GLAND: PAPILLARY CYSTAD, Tumor Site: Type of Lesion: LUNG: ALVEOLAR/BRONCHIOLAR CARCINOMA, LUNG: ALVEOLAR/BRONCHIOLAR ADENOMA OR CARCINOMA, HARDERIAN GLAND: PAPILLARY CYSTAD) “active; positive”; (Species: MOUSE, Strain/Sex: NMRI/FEMALE, Route: SUBCUTANEOUS, Dose: 0, 0.1, 0.3, 1 MG/MOUSE IN TRICAPRYLIN 1/WK FOR 95 WK (STUDY DURATION: 110 WK), Dose: 0, 0.1, 0.3, 1 MG/MOUSE IN TRICAPRYLIN 1/WK FOR 95 WK (STUDY DURATION: 110 WK), Tumor Site: Type of Lesion: INJECTION SITE: TUMOR) “active; positive”; (Species: RAT, Strain/Sex: F344/FEMALE, Route: INHALATION, Dose: 0, 10, 33, 100 PPM 6 HR/D 5 D/WK FOR STUDY DURATION (STUDY DURATION: 2 YR), Dose: 0, 10, 33, 100 PPM 6 HR/D 5 D/WK FOR STUDY DURATION (STUDY DURATION: 2 YR), Tumor Site: Type of Lesion: BRAIN: ASTROCYTOMA, MIXED GLIOMA, OLIGODENDROGLIOMA, MALIGNANT RETICULOSIS) “active; positive”; (Species: RAT, Strain/Sex: F344/FEMALE, Route: INHALATION, Dose: 0, 10, 33, 100 PPM 6 HR/D 5 D/WK FOR UP TO 2 YR (STUDY DURATION: 24 MO), Dose: 0, 10, 33, 100 PPM 6 HR/D 5 D/WK FOR UP TO 2 YR (STUDY DURATION: 24 MO)) “inactive; negative”; (Species: RAT, Strain/Sex: F344/MALE, Route: INHALATION, Dose: 0, 10, 33, 100 PPM 6 HR/D 5 D/WK FOR STUDY DURATION (STUDY DURATION: 2 YR), Dose: 0, 10, 33, 100 PPM 6 HR/D 5 D/WK FOR STUDY DURATION (STUDY DURATION: 2 YR), Tumor Site: Type of Lesion: BRAIN: GRANULAR CELL TUMOR, ASTROCYTOMA, MIXED GLIOMA, OLIGODENDROGLIOMA, MALIGNANT RETICULOSIS) “active; positive”. Further, the carcinogen call reads like this: (Species: RAT, Strain/Sex: F344/MALE, Route: INHALATION, Dose: 0, 10, 33, 100 PPM 6 HR/D 5 D/WK FOR UP TO 2 YR (STUDY DURATION: 24 MO), Dose: 0, 10, 33, 100 PPM 6 HR/D 5 D/WK FOR UP TO 2 YR (STUDY DURATION: 24 MO), Tumor Site: Type of Lesion: BRAIN: GRANULAR CELL TUMOR OR GLIAL CELL TUMOR OR ASTROCYTOMA OR MALIGNANT RETICULOSIS) “active; positive”; (Species: RAT, Strain/Sex: F344/MALE, Route: INHALATION, Dose: 0, 50, 100 PPM 7 HR/D 5 D/WK FOR 24 MO (STUDY DURATION: LIFETIME), Dose: 0, 50, 100 PPM 7 HR/D 5 D/WK FOR 24 MO (STUDY DURATION: LIFETIME), Tumor Site: Type of Lesion: HEMATOPOIETIC SYSTEM: MONONUCLEAR CELL LEUKEMIA, PERITONEUM: MESOTHELIOMA, BRAIN: GLIOMA, Tumor Site: Type of Lesion: HEMATOPOIETIC SYSTEM: MONONUCLEAR CELL LEUKEMIA, PERITONEUM: MESOTHELIOMA, BRAIN: GLIOMA) “active; positive”; (Species: RAT, Strain/Sex: F344/MALE, Route: INHALATION, Dose: 0, 50, 100 PPM 7 HR/D 5 D/WK FOR 104 WK (STUDY DURATION: 2 YR), Dose: 0, 50, 100 PPM 7 HR/D 5 D/WK FOR 104 WK (STUDY DURATION: 2 YR), Tumor Site: Type of Lesion: BRAIN: GLIOMA (MIXED CELL), PERITONEUM: MESOTHELIOMA, PITUITARY GLAND: ADENOMA, SPLEEN: MONONUCLEAR CELL LEUKEMIA, Tumor Site: Type of Lesion: BRAIN: GLIOMA (MIXED CELL), PERITONEUM: MESOTHELIOMA, PITUITARY GLAND: ADENOMA, SPLEEN: MONONUCLEAR CELL LEUKEMIA) “active; positive”; (Species: RAT, Strain/Sex: SPRAGUE-DAWLEY/FEMALE, Route: GAVAGE, Dose: 7.5, 30 MG/KG IN SALAD OIL 2/WK FOR UP TO 150 WK, Tumor Site: Type of Lesion: FORESTOMACH: SQUAMOUS CELL CARCINOMA) “active; positive”.
For `CCOP(=O)(SC(C)CC)N1CCSC1=O` (configuration not stated), the carcinogen call is “inactive; negative” (Species: Mouse, Strain/Sex: CD-1/Female (60/Group), Route: Oral, Dose: 0, 1.11, 3.20, 10.4, 39.2 mg/kg/day of 93.3% fosthiazate in diet for 104 wk, study duration 102 wk, Dose: 0, 1.11, 3.20, 10.4, 39.2 mg/kg/day of 93.3% fosthiazate in diet for 104 wk, study duration 102 wk); “inactive; negative” (Species: Mouse, Strain/Sex: CD-1/Male (60/Group), Route: Oral, Dose: 0, 1.02, 3.10, 10.3, 30.5 mg/kg/day of 93.3% fosthiazate in diet for 104 wk, study duration 102 wk, Dose: 0, 1.02, 3.10, 10.3, 30.5 mg/kg/day of 93.3% fosthiazate in diet for 104 wk, study duration 102 wk); “inactive; negative” (Species: Rat, Strain/Sex: CD/Female (50/Group), Route: Oral, Dose: 0, 0.051, 0.50, 2.45, 11.69 mg/kg/day of 93.3% fosthiazate in diet for 104 wk, study duration 104 wk, Dose: 0, 0.051, 0.50, 2.45, 11.69 mg/kg/day of 93.3% fosthiazate in diet for 104 wk, study duration 104 wk); “inactive; negative” (Species: Rat, Strain/Sex: CD/Male (50/Group), Route: Oral, Dose: 0, 0.039, 0.38, 1.94, 8.34 mg/kg/day of 93.3% fosthiazate in diet for 104 wk, study duration 104 wk, Dose: 0, 0.039, 0.38, 1.94, 8.34 mg/kg/day of 93.3% fosthiazate in diet for 104 wk, study duration 104 wk).
In the case of `O=S1(=O)CC=CC1`, the carcinogen call (Species: MOUSE, Strain/Sex: B6C3F1/FEMALE, Route: GAVAGE, Dose: 0, 384, 768 MG/KG, Dose: 0, 384, 768 MG/KG) is “inactive; negative”; the carcinogen call (Species: MOUSE, Strain/Sex: B6C3F1/MALE, Route: GAVAGE, Dose: 0, 311, 622 MG/KG, Dose: 0, 311, 622 MG/KG) was “inactive; negative”; the carcinogen call (Species: RAT, Strain/Sex: OSBORNE-MENDEL/FEMALE, Route: GAVAGE, Dose: 0, 120, 240 MG/KG, Dose: 0, 120, 240 MG/KG) was “inactive; negative”; the carcinogen call (Species: RAT, Strain/Sex: OSBORNE-MENDEL/MALE, Route: GAVAGE, Dose: 0, 197, 372 MG/KG, Dose: 0, 197, 372 MG/KG) is “inactive; negative”.
Turning to `Brc1c(Br)c(Br)c(Oc2c(Br)c(Br)c(Br)c(Br)c2Br)c(Br)c1Br`, the carcinogen call is “inactive; negative” (Species: MOUSE, Strain/Sex: B6C3F1/FEMALE, Route: ORAL, Dose: 0, 25000, 50000 PPM IN DIET FOR 103 WK (STUDY DURATION: 103 WK), Dose: 0, 25000, 50000 PPM IN DIET FOR 103 WK (STUDY DURATION: 103 WK)); “equivocal” (Species: MOUSE, Strain/Sex: B6C3F1/MALE, Route: ORAL, Dose: 0, 25000, 50000 PPM IN DIET FOR 103 WK (STUDY DURATION: 103 WK), Dose: 0, 25000, 50000 PPM IN DIET FOR 103 WK (STUDY DURATION: 103 WK), Tumor Site: Type of Lesion: LIVER: HEPATOCELLULAR ADENOMA OR CARCINOMA, THYROID GLAND: FOLLICULAR CELL ADENOMA OR CARCINOMA); “active; positive” (Species: RAT, Strain/Sex: F344/FEMALE, Route: ORAL, Dose: 0, 25000, 50000 PPM IN DIET FOR 103 WK (STUDY DURATION: 103 WK), Dose: 0, 25000, 50000 PPM IN DIET FOR 103 WK (STUDY DURATION: 103 WK), Tumor Site: Type of Lesion: LIVER: NEOPLASTIC NODULE, NEOPLASTIC NODULE OR HEPATOCELLULAR CARCINOMA); “active; positive” (Species: RAT, Strain/Sex: F344/MALE, Route: ORAL, Dose: 0, 25000, 50000 PPM IN DIET FOR 103 WK (STUDY DURATION: 103 WK), Dose: 0, 25000, 50000 PPM IN DIET FOR 103 WK (STUDY DURATION: 103 WK), Tumor Site: Type of Lesion: LIVER: NEOPLASTIC NODULE, NEOPLASTIC NODULE OR HEPATOCELLULAR CARCINOMA).
